Patent US12622910B2, “Inhibitors of Bruton's tyrosine kinase and methods of their use” (Janssen Pharmaceutica NV, priority 2021, dated 2026)

Key:
Experiment in all cases: Receptor panel, Study 1
Assay type in all cases: binding
MC4 (h) = MC4 (h) (Homo sapiens, UniProt P32245)
Method: (§1) RESULTS AND DISCUSSION—Selectivity—The compound of Formula (III) was evaluated in three selectivity panels to assess the potential for off-target pharmacology (Table 8). […] The kinase off-target profile of The compound of Formula (III) was assessed in a full human wild-type panel using radiometric kinase activity assays (KinaseProfiler™ and IC50Profiler™; Eurofins Scientific) (Table 9; FIG. 23). The compound of Formula (III) inhibited 4/278 kinases >50% at 1 micromolar, identifying BTK and the three other kinases having analogous Cys residues with the potential for covalent inhibition (BMX, TEC, BLK). […]. The cellular kinase selectivity of The compound of Formula (III) was established in native Ramos B cell kinome assays (KiNativ™; ActivX) confirmed BTK as the primary target with inhibition of BLK and TEC inhibition detected (Table 10).

SK^+Ca channel = system: SK^+Ca channel
Method: as §1

AT1 (h) = AT1 (h) (Homo sapiens, UniProt P30556)
Method: as §1

5-HT7 (h) = 5-HT7 (h) (Homo sapiens, UniProt P34969)
Method: as §1

CCKA (h) (CCK1) = CCKA (h) (CCK1) (Homo sapiens, UniProt P32238)
Method: as §1

A1 (h) = A1 (h) (Homo sapiens, UniProt P30542)
Method: as §1

VIP1 (h) (VPAC1) = VIP1 (h) (VPAC1) (Homo sapiens, UniProt P32241)
Method: as §1

M1 (h) = M1 (h) (Homo sapiens, UniProt P11229)
Method: as §1

ETA (h) = ETA (h) (Homo sapiens, UniProt P25101)
Method: as §1

delta 2(h) (DOP) = delta 2(h) (DOP) (Homo sapiens, UniProt P41143)
Method: as §1

5-HT6 (h) = 5-HT6 (h) (Homo sapiens, UniProt P50406)
Method: as §1

D1 (h) = D1 (h) (Homo sapiens, UniProt P21728)
Method: as §1

5-HT1A (h) = 5-HT1A (h) (Homo sapiens, UniProt P08908)
Method: as §1

Y1 (h) = Y1 (h) (Homo sapiens, UniProt P25929)
Method: as §1

Cl^− channel = system: Cl^− channel
Method: as §1

5-HT5A (h) = 5-HT5A (h) (Homo sapiens, UniProt P47898)
Method: as §1

NK3 (h) = NK3 (h) (Homo sapiens, UniProt P29371)
Method: as §1

Na^+ channel (site 2) = system: Na^+ channel (site 2)
Method: as §1

M3 (h) = M3 (h) (Homo sapiens, UniProt P20309)
Method: as §1

beta 1 (h) = beta 1 (h) (Homo sapiens, UniProt P08588)
Method: as §1

NT1 (h) (NTS1) = NT1 (h) (NTS1) (Homo sapiens, UniProt P30989)
Method: as §1

CCR1 (h) = CCR1 (h) (Homo sapiens, UniProt P32246)
Method: as §1

H2 (h) = H2 (h) (Homo sapiens, UniProt P25021)
Method: as §1

Y2 (h) = Y2 (h) (Homo sapiens, UniProt P49146)
Method: as §1

GABA = system: GABA
Method: as §1

5-HT2A (h) = 5-HT2A (h) (Homo sapiens, UniProt P28223)
Method: as §1

kappa (KOP) = system: kappa (KOP)
Method: as §1

BZD (central) = system: BZD (central)
Method: as §1

sst (non-selective) = system: sst (non-selective)
Method: as §1

ORL1 (h) (NOP) = ORL1 (h) (NOP) (Homo sapiens, UniProt P41146)
Method: as §1

mu (h) (MOP) = mu (h) (MOP) (Homo sapiens, UniProt P35372)
Method: as §1

DA transporter (h) = DA transporter (h) (Homo sapiens, UniProt Q01959)
Method: as §1

Ca^2+ channel = system: Ca^2+ channel
Method: as §1

A2A (h) = A2A (h) (Homo sapiens, UniProt P29274)
Method: as §1

5-HT1B = 5-HT1B (Rattus norvegicus, UniProt P28564)
Method: as §1

MT1 (h) = MT1 (h) (Homo sapiens, UniProt P48039)
Method: as §1

CXCR2 (h) (IL-8B) = CXCR2 (h) (IL-8B) (Homo sapiens, UniProt P25025)
Method: as §1

D2S (h) = D2S (h) (Homo sapiens, UniProt P14416)
Method: as §1

Vla(h) = Vla(h) (Homo sapiens, UniProt P37288)
Method: as §1

Chain of 5-HT1B (P28564 whole entry): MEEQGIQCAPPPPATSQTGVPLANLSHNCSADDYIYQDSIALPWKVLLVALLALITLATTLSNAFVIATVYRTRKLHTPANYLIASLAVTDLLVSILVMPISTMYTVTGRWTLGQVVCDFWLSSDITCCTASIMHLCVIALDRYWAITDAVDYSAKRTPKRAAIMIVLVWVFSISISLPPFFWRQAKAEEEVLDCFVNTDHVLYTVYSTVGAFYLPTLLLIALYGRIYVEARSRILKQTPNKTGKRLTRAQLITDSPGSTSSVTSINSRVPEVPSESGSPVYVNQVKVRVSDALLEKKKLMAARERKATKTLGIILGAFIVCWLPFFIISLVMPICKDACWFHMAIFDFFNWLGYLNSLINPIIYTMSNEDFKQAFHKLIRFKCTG
Chain of ORL1 (h) (NOP) (P41146 whole entry): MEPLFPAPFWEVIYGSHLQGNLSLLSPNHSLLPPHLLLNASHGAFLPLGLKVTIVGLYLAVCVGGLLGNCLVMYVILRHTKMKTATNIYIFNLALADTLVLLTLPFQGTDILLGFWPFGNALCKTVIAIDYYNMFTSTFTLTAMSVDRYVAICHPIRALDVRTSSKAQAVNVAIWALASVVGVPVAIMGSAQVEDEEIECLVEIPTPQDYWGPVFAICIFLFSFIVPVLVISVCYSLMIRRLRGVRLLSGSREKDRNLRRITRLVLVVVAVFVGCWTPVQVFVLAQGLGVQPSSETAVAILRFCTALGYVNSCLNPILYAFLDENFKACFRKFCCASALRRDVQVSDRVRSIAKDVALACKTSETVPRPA
Chain of mu (h) (MOP) (P35372 whole entry): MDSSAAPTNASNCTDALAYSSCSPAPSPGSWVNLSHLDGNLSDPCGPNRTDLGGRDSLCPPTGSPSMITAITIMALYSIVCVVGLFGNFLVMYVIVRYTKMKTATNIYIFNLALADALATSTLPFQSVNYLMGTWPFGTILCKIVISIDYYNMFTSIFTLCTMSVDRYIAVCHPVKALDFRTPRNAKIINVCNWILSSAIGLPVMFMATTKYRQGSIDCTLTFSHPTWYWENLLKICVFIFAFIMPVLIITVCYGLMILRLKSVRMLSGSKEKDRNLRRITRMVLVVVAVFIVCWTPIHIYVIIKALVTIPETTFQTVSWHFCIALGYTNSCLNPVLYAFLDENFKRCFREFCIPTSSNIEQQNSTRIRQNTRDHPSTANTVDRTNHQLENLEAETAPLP
Chain of 5-HT2A (h) (P28223 whole entry): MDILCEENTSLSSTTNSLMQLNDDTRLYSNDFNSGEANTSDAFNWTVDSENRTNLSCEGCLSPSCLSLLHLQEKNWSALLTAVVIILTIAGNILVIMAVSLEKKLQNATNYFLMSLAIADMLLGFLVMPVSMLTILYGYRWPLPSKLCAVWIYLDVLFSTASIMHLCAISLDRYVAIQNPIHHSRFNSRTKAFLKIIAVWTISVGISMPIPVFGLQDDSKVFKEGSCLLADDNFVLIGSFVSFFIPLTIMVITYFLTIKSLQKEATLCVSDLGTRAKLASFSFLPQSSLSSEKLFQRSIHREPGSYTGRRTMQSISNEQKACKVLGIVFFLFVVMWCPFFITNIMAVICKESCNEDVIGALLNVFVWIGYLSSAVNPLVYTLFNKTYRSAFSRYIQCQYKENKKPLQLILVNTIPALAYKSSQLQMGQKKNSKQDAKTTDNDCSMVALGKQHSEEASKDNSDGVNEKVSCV
Chain of DA transporter (h) (Q01959 whole entry): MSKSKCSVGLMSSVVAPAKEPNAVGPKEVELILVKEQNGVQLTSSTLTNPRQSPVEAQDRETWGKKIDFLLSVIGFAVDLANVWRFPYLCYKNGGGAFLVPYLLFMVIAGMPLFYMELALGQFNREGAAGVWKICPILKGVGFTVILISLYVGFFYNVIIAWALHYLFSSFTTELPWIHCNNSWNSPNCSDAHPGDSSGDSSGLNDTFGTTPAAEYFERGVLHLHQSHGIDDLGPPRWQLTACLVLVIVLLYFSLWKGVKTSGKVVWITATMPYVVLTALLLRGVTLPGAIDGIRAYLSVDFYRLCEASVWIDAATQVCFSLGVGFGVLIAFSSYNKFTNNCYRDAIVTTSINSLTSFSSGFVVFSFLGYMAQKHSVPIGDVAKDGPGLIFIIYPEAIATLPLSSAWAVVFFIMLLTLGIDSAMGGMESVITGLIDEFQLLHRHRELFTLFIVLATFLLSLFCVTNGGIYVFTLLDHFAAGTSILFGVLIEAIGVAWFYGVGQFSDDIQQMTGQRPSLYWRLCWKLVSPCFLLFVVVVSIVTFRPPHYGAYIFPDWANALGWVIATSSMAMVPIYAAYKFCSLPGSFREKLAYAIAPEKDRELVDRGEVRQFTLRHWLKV
Chain of M3 (h) (P20309 whole entry): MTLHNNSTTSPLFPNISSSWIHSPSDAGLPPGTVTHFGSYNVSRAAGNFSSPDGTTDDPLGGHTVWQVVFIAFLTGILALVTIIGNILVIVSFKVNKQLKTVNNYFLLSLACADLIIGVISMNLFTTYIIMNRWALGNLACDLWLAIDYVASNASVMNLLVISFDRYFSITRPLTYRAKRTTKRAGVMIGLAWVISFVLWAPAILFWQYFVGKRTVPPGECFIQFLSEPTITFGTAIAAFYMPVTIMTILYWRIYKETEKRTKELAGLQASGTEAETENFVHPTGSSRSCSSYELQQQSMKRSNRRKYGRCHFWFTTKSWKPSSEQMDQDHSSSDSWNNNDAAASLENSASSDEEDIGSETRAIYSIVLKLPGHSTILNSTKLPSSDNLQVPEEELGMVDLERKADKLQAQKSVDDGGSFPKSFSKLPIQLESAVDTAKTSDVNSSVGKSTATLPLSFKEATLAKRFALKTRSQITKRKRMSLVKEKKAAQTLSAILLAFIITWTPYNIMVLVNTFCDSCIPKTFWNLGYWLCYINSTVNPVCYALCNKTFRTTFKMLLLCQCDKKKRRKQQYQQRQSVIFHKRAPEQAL
Chain of ETA (h) (P25101 21-427): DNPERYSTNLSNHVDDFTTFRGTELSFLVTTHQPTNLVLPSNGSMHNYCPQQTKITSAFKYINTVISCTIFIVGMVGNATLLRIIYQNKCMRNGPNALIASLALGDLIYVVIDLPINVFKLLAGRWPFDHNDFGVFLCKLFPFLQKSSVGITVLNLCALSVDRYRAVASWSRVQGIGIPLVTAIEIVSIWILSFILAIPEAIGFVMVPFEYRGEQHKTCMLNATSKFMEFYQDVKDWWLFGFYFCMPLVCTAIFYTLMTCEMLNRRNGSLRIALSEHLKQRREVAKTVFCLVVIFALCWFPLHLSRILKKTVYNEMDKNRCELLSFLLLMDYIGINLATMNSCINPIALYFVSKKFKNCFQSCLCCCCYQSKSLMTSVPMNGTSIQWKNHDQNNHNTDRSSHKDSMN
Chain of CXCR2 (h) (IL-8B) (P25025 whole entry): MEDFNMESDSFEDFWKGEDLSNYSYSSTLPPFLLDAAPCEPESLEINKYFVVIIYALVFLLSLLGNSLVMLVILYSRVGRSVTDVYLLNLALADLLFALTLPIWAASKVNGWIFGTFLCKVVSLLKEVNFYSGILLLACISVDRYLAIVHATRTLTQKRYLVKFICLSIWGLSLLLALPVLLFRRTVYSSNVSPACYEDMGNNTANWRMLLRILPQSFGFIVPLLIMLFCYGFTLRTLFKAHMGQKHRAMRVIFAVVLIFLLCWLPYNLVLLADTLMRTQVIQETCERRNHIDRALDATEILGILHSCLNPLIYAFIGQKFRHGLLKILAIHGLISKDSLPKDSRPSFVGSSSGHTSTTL
Chain of 5-HT7 (h) (P34969 whole entry): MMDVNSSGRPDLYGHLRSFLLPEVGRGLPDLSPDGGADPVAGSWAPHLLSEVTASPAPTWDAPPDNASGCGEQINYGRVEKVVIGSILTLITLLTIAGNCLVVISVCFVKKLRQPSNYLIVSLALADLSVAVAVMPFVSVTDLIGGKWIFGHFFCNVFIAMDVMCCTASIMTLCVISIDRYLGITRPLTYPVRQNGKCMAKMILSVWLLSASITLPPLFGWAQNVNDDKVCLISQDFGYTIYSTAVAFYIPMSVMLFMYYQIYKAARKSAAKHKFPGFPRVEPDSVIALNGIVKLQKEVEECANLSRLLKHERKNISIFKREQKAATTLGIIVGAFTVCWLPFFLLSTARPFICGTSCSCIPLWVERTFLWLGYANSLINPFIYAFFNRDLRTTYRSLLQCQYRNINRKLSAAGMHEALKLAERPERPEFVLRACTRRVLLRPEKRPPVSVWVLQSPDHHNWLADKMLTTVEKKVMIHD
Chain of beta 1 (h) (P08588 whole entry): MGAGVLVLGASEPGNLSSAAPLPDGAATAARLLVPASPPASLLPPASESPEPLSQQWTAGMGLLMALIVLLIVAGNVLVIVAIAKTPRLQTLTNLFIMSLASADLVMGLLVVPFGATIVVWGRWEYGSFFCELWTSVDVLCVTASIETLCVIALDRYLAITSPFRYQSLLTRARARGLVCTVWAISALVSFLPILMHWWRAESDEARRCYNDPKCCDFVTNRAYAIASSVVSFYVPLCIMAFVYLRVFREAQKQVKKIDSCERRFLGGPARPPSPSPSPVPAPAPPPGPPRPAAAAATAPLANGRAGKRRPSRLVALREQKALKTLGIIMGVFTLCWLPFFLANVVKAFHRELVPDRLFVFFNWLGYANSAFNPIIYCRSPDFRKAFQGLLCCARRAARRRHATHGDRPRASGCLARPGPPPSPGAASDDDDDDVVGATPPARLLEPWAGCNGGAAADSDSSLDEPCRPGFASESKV
Chain of H2 (h) (P25021 whole entry): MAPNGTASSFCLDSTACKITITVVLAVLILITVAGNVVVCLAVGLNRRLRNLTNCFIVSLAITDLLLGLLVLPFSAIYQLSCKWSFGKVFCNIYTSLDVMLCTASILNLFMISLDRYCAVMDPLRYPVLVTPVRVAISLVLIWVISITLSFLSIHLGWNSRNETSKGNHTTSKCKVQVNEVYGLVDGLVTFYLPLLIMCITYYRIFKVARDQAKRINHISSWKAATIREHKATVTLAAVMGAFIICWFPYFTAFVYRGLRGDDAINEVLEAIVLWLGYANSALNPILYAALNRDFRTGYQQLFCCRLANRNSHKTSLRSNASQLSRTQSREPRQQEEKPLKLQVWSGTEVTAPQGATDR

SMILES: C=CC(=O)N[C@H]1CCC[C@H]1NC(=O)c1sc2nccc3c2c1NC(=O)N3c1cnc(CC(C)C)cc1C (atropisomer, axis not shown) [compound of Formula (III), N-((1R,2S)-2-Acrylamidocyclopentyl)-5-(S)-(6-isobutyl-4-methylpyridin-3-yl)-4-oxo-4,5-dihydro-3H-1-thia-3,5,8-triazaacenaphthylene-2-carboxamide]
- inhibition at 10 µM (MC4 (h)): < 10%
- % Inhibition at 10 μM (SK^+Ca channel): — (no inhibition observed)
- inhibition at 10 µM (AT1 (h)): < 10%
- inhibition at 10 µM (5-HT7 (h)): < 10%
- inhibition at 10 µM (CCKA (h) (CCK1)): 23.7%
- inhibition at 10 µM (A1 (h)): < 10%
- inhibition at 10 µM (VIP1 (h) (VPAC1)): < 10%
- inhibition at 10 µM (M1 (h)): < 10%
- inhibition at 10 µM (ETA (h)): < 10%
- inhibition at 10 µM (delta 2(h) (DOP)): < 10%
- inhibition at 10 µM (5-HT6 (h)): < 10%
- inhibition at 10 µM (D1 (h)): < 10%
- inhibition at 10 µM (5-HT1A (h)): < 10%
- inhibition at 10 µM (Y1 (h)): 44.4%
- % Inhibition at 10 μM (Cl^− channel): 25.1%
- inhibition at 10 µM (5-HT5A (h)): < 10%
- inhibition at 10 µM (NK3 (h)): 38.9%
- % Inhibition at 10 μM (Na^+ channel (site 2)): — (no inhibition observed)
- inhibition at 10 µM (M3 (h)): < 10%
- inhibition at 10 µM (beta 1 (h)): < 10%
- inhibition at 10 µM (NT1 (h) (NTS1)): < 10%
- inhibition at 10 µM (CCR1 (h)): < 10%
- inhibition at 10 µM (H2 (h)): < 10%
- inhibition at 10 µM (Y2 (h)): < 10%
- % Inhibition at 10 μM (GABA): — (no inhibition observed)
- inhibition at 10 µM (5-HT2A (h)): < 10%
- % Inhibition at 10 μM (kappa (KOP)): — (no inhibition observed)
- % Inhibition at 10 μM (BZD (central)): — (no inhibition observed)
- % Inhibition at 10 μM (sst (non-selective)): — (no inhibition observed)
- inhibition at 10 µM (ORL1 (h) (NOP)): 14.6%
- inhibition at 10 µM (mu (h) (MOP)): < 10%
- inhibition at 10 µM (DA transporter (h)): < 10%
- % Inhibition at 10 μM (Ca^2+ channel): — (no inhibition observed)
- inhibition at 10 µM (A2A (h)): < 10%
- inhibition at 10 µM (5-HT1B): < 10%
- inhibition at 10 µM (MT1 (h)): 13.4%
- inhibition at 10 µM (CXCR2 (h) (IL-8B)): < 10%
- inhibition at 10 µM (D2S (h)): < 10%
- inhibition at 10 µM (Vla(h)): < 10%
